According to patent US10647713B2 (Nimbus Lakshmi, Inc., priority 2016, dated 2020):

target: human TYK2 (JH2domain-pseudokinase) (Homo sapiens (Human), UniProt P29597); assay: TYK2 JH2 Domain Binding Assay (KINOMEscan, DiscoveRx); conditions: 11-point dilution, duplicate
In short: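 TYK2 JH2 (G556–D888)–NFkB DBD fusion, DNA-tagged, from HEK293 extracts (<0.1 nM) competed against immobilised biotinylated ligand for 1 h at room temperature, 0.9% DMSO. Bead-retained kinase quantified by qPCR; Kd from 11-point 3-fold series (top 30,000 nM, duplicate), Hill fit with slope −1.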

human TYK2 (JH2domain-pseudokinase), sequence (P29597 556-888): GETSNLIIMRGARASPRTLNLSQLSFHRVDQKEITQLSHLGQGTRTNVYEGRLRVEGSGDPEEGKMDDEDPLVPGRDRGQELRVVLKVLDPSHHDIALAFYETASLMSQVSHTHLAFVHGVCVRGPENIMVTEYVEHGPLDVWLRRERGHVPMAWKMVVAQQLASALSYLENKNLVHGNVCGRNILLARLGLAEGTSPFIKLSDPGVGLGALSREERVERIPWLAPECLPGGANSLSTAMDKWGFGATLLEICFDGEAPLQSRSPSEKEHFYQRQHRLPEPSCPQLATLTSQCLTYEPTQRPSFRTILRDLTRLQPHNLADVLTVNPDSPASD

Q: For `Cc1ncc(Nc2cc(Nc3ccc([C@H]4CCCCO4)cc3S(C)(=O)=O)c3nc(C(F)F)[nH]c3n2)nc1C` [I-486, (R)-2-(difluoromethyl)-N5-(5,6-dimethylpyrazin-2-yl)-N7-(2-(methylsulfonyl)-4-(tetrahydro-2H-pyran-2-yl)phenyl)-3H-imidazo[4,5-b]pyridine-5,7-diamine], which Kd is on record?
A: 100 to 500 pM

Q: How did the Kd turn out when `Cc1ncc(Nc2cc(Nc3ccc([C@@H]4CCCCO4)cc3S(C)(=O)=O)c3nc(C(F)F)[nH]c3n2)nc1C` [I-487, (S)-2-(difluoromethyl)-N5-(5,6-dimethylpyrazin-2-yl)-N7-(2-(methylsulfonyl)-4-(tetrahydro-2H-pyran-2-yl)phenyl)-3H-imidazo[4,5-b]pyridine-5,7-diamine] was run?
A: 500 to 1000 pM

Q: With `Cc1nc2c(Nc3ccc(-c4nc(C)sc4C)cc3S(C)(=O)=O)cc(NC(=O)C3CC3)nc2[nH]1` [I-488, N-(7-((4-(2,5-dimethylthiazol-4-yl)-2-(methylsulfonyl)phenyl)amino)-2-methyl-3H-imidazo[4,5-b]pyridin-5-yl)cyclopropanecarboxamide] as the compound, how does the Kd read?
A: < 100 pM

Q: `CC(C)c1ccc(Nc2cc(Nc3ccccc3S(C)(=O)=O)c3nc(C(F)F)[nH]c3n2)nc1C#N` [I-489, 6-((2-(difluoromethyl)-7-((2-(methylsulfonyl)phenyl)amino)-3H-imidazo[4,5-b]pyridin-5-yl)amino)-3-isopropylpicolinonitrile] was tested. Which Kd did it give?
A: 100 to 500 pM

Q: `Cc1nc2c(Nc3ccccc3S(C)(=O)=O)cc(Nc3ccc(C(C)C)c(C#N)n3)nc2[nH]1` [I-490, 3-isopropyl-6-((2-methyl-7-((2-(methylsulfonyl)phenyl)amino)-3H-imidazo[4,5-b]pyridin-5-yl)amino)picolinonitrile] was tested. Which Kd did it give?
A: 100 to 500 pM

Q: With `Cc1c(-c2ccc(Nc3cc(Nc4cc5n(n4)CCOC5)nc4[nH]c(C(F)F)nc34)c(S(C)(=O)=O)c2)cnn1C` [I-491, 2-(difluoromethyl)-N5-(6,7-dihydro-4H-pyrazolo[5,1-c][1,4]oxazin-2-yl)-N7-(4-(1,5-dimethyl-1H-pyrazol-4-yl)-2-(methylsulfonyl)phenyl)-3H-imidazo[4,5-b]pyridine-5,7-diamine] as the compound, how does the Kd read?
A: < 100 pM

Q: Which Kd does the source give for `Cc1nc2c(Nc3ccc(-c4cnn(C)c4C)cc3S(C)(=O)=O)cc(Nc3cc4n(n3)CCOC4)nc2[nH]1` [I-492, N5-(6,7-dihydro-4H-pyrazolo[5,1-c][1,4]oxazin-2-yl)-N7-(4-(1,5-dimethyl-1H-pyrazol-4-yl)-(methylsulfonyl)phenyl)-2-methyl-3H-imidazo[4,5-b]pyridine-5,7-diamine] here?
A: < 100 pM

Q: For `Cc1c(-c2ccc(Nc3cc(Nc4cccc(C(F)(F)F)n4)nc4[nH]c(C(F)F)nc34)c(S(C)(=O)=O)c2)cnn1C` [I-493, 2-(difluoromethyl)-N7-(4-(1,5-dimethyl-1H-pyrazol-4-yl)-2-(methylsulfonyl)phenyl)-N5-(6-(trifluoromethyl)pyridin-2-yl)-3H-imidazo[4,5-b]pyridine-5,7-diamine], which Kd is on record?
A: 100 to 500 pM

Q: How did the Kd turn out when `Cc1cc(Nc2cc(Nc3ccc([C@H]4CCCCO4)cc3S(C)(=O)=O)c3nc(C(F)F)[nH]c3n2)nc(C)n1` [I-494, (R)-2-(difluoromethyl)-N5-(2,6-dimethylpyrimidin-4-yl)-N7-(2-(methylsulfonyl)-4-(tetrahydro-2H-pyran-2-yl)phenyl)-3H-imidazo[4,5-b]pyridine-5,7-diamine] was run?
A: < 100 pM

Q: `Cc1cnc(-c2ccc(Nc3cc(Nc4cc5n(n4)CCOC5)nc4[nH]c(C(F)F)nc34)c(S(C)(=O)=O)c2)s1` [I-495, 2-(difluoromethyl)-N5-(6,7-dihydro-4H-pyrazolo[5,1-c][1,4]oxazin-2-yl)-N7-(2-(methylsulfonyl)-4-(5-methylthiazol-2-yl)phenyl)-3H-imidazo[4,5-b]pyridine-5,7-diamine] was tested. Which Kd did it give?
A: 100 to 500 pM

Q: For `Cc1nc2c(Nc3ccc(-c4ncc(C)s4)cc3S(C)(=O)=O)cc(Nc3cc4n(n3)CCOC4)nc2[nH]1` [I-496, N5-(6,7-dihydro-4H-pyrazolo[5,1-c][1,4]oxazin-2-yl)-2-methyl-N7-(2-(methylsulfonyl)-4-(5-methylthiazol-2-yl)phenyl)-3H-imidazo[4,5-b]pyridine-5,7-diamine], which Kd is on record?
A: 100 to 500 pM

Q: For `CC1(C)CC[C@H](c2ccc(Nc3cc(NC(=O)C4CC4)nc4[nH]c(C(F)F)nc34)c(S(C)(=O)=O)c2)O1` [I-498, (R)—N-(2-(difluoromethyl)-7-((4-(5,5-dimethyltetrahydrofuran-2-yl)-2-(methylsulfonyl)phenyl)amino)-3H-imidazo[4,5-b]pyridin-5-yl)cyclopropanecarboxamide], which Kd is on record?
A: 100 to 500 pM

Q: How did the Kd turn out when `CC1(C)CC[C@@H](c2ccc(Nc3cc(NC(=O)C4CC4)nc4[nH]c(C(F)F)nc34)c(S(C)(=O)=O)c2)O1` [I-499, (S)—N-(2-(difluoromethyl)-7-((4-(5,5-dimethyltetrahydrofuran-2-yl)-2-(methylsulfonyl)phenyl)amino)-3H-imidazo[4,5-b]pyridin-5-yl)cyclopropanecarboxamide] was run?
A: 1000 to 10000 pM

Q: Which Kd does the source give for `COCc1nc(-c2ccc(Nc3cc(NC(=O)C4CC4)nc4[nH]c(C(F)F)nc34)c(S(C)(=O)=O)c2)sc1C` [I-500, N-(2-(difluoromethyl)-7-((4-(4-(methoxymethyl)-5-methylthiazol-2-yl)-2-(methylsulfonyl)phenyl)amino)-3H-imidazo[4,5-b]pyridin-5-yl)cyclopropanecarboxamide] here?
A: 100 to 500 pM

Q: Which Kd does the source give for `COCCCn1ccc(-c2ccc(Nc3cc(NC(=O)C4CC4)nc4[nH]c(C(F)F)nc34)c(S(C)(=O)=O)c2)n1` [I-501, N-(2-(difluoromethyl)-7-((4-(1-(3-methoxypropyl)-1H-pyrazol-3-yl)-2-(methylsulfonyl)phenyl)amino)-3H-imidazo[4,5-b]pyridin-5-yl)cyclopropanecarboxamide] here?
A: 100 to 500 pM

Q: How did the Kd turn out when `COCCCn1ccc(-c2ccc(Nc3cc(NC(=O)C4CC4)nc4[nH]c(C)nc34)c(S(C)(=O)=O)c2)n1` [I-502, N-(7-((4-(1-(3-methoxypropyl)-1H-pyrazol-3-yl)-2-(methylsulfonyl)phenyl)amino)-2-methyl-3H-imidazo[4,5-b]pyridin-5-yl)cyclopropanecarboxamide] was run?
A: 100 to 500 pM

Q: For `Cc1nc2c(Nc3ccc(-c4ncc(C)s4)cc3S(C)(=O)=O)cc(Nc3cccc(C#N)n3)nc2[nH]1` [I-503, 6-((2-methyl-7-((2-(methylsulfonyl)-4-(5-methylthiazol-2-yl)phenyl)amino)-3H-imidazo[4,5-b]pyridin-5-yl)amino)picolinonitrile], which Kd is on record?
A: 100 to 500 pM

Q: `Cc1csc(-c2ccc(Nc3cc(Nc4cccc(C#N)n4)nc4[nH]c(C)nc34)c(S(C)(=O)=O)c2)n1` [I-504, 6-((2-methyl-7-((2-(methylsulfonyl)-4-(4-methylthiazol-2-yl)phenyl)amino)-3H-imidazo[4,5-b]pyridin-5-yl)amino)picolinonitrile] was tested. Which Kd did it give?
A: 100 to 500 pM

Q: `Cc1cc(Nc2cc(Nc3ccc([C@@H]4CCCCO4)cc3S(C)(=O)=O)c3nc(C(F)F)[nH]c3n2)nc(C)n1` [I-505, (S)-2-(difluoromethyl)-N5-(2,6-dimethylpyrimidin-4-yl)-N7-(2-(methylsulfonyl)-4-(tetrahydro-2H-pyran-2-yl)phenyl)-3H-imidazo[4,5-b]pyridine-5,7-diamine] was tested. Which Kd did it give?
A: 100 to 500 pM

Q: With `Cc1nc2c(Nc3ccc(-c4nc(C)c(C)s4)cc3S(C)(=O)=O)cc(Nc3cccc(C#N)n3)nc2[nH]1` [I-506, 6-((7-((4-(4,5-dimethylthiazol-2-yl)-2-(methylsulfonyl)phenyl)amino)-2-methyl-3H-imidazo[4,5-b]pyridin-5-yl)amino)picolinonitrile] as the compound, how does the Kd read?
A: 500 to 1000 pM

Q: `Cc1nc(-c2ccc(Nc3cc(Nc4cccc(C#N)n4)nc4[nH]c(C(F)F)nc34)c(S(C)(=O)=O)c2)sc1C` [I-507, 6-((2-(difluoromethyl)-7-((4-(4,5-dimethylthiazol-2-yl)-2-(methylsulfonyl)phenyl)amino)-3H-imidazo[4,5-b]pyridin-5-yl)amino)picolinonitrile] was tested. Which Kd did it give?
A: 1000 to 10000 pM

Q: How did the Kd turn out when `Cc1nc2c(Nc3ccc(-c4cc(C)n(C)n4)cc3S(C)(=O)=O)cc(Nc3cnc(C)c(C)n3)nc2[nH]1` [I-508, N7-(4-(1,5-dimethyl-1H-pyrazol-3-yl)-2-(methylsulfonyl)phenyl)-N5-(5,6-dimethylpyrazin-2-yl)-2-methyl-3H-imidazo[4,5-b]pyridine-5,7-diamine] was run?
A: < 100 pM

Q: Which Kd does the source give for `Cc1cc(Nc2cc(Nc3ccc(-c4cc(C)n(C)n4)cc3S(C)(=O)=O)c3nc(C)[nH]c3n2)nc(C)n1` [I-509, N7-(4-(1,5-dimethyl-1H-pyrazol-3-yl)-2-(methylsulfonyl)phenyl)-N5-(2,6-dimethylpyrimidin-4-yl)-2-methyl-3H-imidazo[4,5-b]pyridine-5,7-diamine] here?
A: < 100 pM

Q: `Cc1cc(Nc2cc(Nc3ccc(-c4nn(C)cc4C)cc3S(C)(=O)=O)c3nc(C(F)F)[nH]c3n2)nc(C)n1` [I-510, 2-(difluoromethyl)-N7-(4-(1,4-dimethyl-1H-pyrazol-3-yl)-2-(methylsulfonyl)phenyl)-N5-(2,6-dimethylpyrimidin-4-yl)-3H-imidazo[4,5-b]pyridine-5,7-diamine] was tested. Which Kd did it give?
A: < 100 pM

Q: `Cc1cc(Nc2cc(Nc3ccc(-c4nn(C)cc4C)cc3S(C)(=O)=O)c3nc(C)[nH]c3n2)nc(C)n1` [I-511, N7-(4-(1,4-dimethyl-1H-pyrazol-3-yl)-2-(methylsulfonyl)phenyl)-N5-(2,6-dimethylpyrimidin-4-yl)-2-methyl-3H-imidazo[4,5-b]pyridine-5,7-diamine] was tested. Which Kd did it give?
A: < 100 pM

Q: How did the Kd turn out when `COCc1nc(-c2ccc(Nc3cc(NC(=O)C4CC4)nc4[nH]c(C)nc34)c(S(C)(=O)=O)c2)sc1C` [I-512, N-(7-((4-(4-(methoxymethyl)-5-methylthiazol-2-yl)-2-(methylsulfonyl)phenyl)amino)-2-methyl-3H-imidazo[4,5-b]pyridin-5-yl)cyclopropanecarboxamide] was run?
A: < 100 pM

Q: How did the Kd turn out when `Cc1cnc(-c2ccc(Nc3cc(Nc4cccc(C#N)n4)nc4[nH]c(C(F)F)nc34)c(S(C)(=O)=O)c2)s1` [I-513, 6-((2-(difluoromethyl)-7-((2-(methylsulfonyl)-4-(5-methylthiazol-2-yl)phenyl)amino)-3H-imidazo[4,5-b]pyridin-5-yl)amino)picolinonitrile] was run?
A: 500 to 1000 pM
